Structures are written as SMILES.

This note sets out measurements from ChEMBL document CHEMBL1157862, “Synthesis and pharmacological evaluation of novel fused thiophene derivatives as 5-HT2A receptor antagonists: molecular modeling study” (Eur J Med Chem, 2010).

Chain of 5-hydroxytryptamine receptor 2A (Rattus norvegicus) (P14842 whole entry): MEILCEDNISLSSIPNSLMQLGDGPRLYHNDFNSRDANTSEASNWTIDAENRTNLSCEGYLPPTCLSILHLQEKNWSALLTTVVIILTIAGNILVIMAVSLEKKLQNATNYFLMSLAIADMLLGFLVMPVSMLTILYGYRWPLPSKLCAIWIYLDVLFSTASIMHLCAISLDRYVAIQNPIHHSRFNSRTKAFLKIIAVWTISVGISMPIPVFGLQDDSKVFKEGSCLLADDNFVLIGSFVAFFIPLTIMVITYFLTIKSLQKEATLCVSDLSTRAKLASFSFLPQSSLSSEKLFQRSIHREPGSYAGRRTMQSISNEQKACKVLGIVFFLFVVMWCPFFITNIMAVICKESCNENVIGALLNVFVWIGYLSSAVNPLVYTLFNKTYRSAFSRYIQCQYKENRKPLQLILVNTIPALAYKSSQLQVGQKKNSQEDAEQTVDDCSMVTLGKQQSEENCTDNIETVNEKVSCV

The experiment has as its target 5-hydroxytryptamine receptor 2A (Rattus norvegicus) (UniProt P14842). The experiment can be described thus: Antagonist activity at 5HT2A receptor in Sprague-Dawley rat assessed as inhibition of 5HT-induced pulmonary arterial pressure at 100 uM relative to 5HT. The experiment is classed as functional.
`CN1CCc2c(sc3[nH]c(=O)n(CCN4CCN(c5ccccc5)CC4)c(=O)c23)C1`: the inhibition was determined as 60%.

Regarding `CCOC(=O)c1c(NC(=O)CN2CCN(c3ccccc3)CC2)sc2c1CCN(C)C2`, the inhibition amounted to 62%.

With `COc1ccccc1N1CCN(CCn2c(=O)[nH]c3sc4c(c3c2=O)CCN(C)C4)CC1`, the inhibition amounted to 65%.

Take `O=c1[nH]c2sc3c(c2c(=O)n1CCN1CCN(c2ccccc2)CC1)CCC3`: the inhibition was determined as 86%.

As for `CCOC(=O)c1c(NC(=O)CN2CCN(c3ccccc3OCC)CC2)sc2c1CCN(C)C2`, the inhibition stood at 65%.

As to `CCOC(=O)c1c(NC(=O)CN2CCN(c3ccccc3OC)CC2)sc2c1CCN(C)C2`, the inhibition was determined as 88%.

For `CN1CCc2c(sc3[nH]c(=O)n(CCN4CCN(c5ccc(F)cc5)CC4)c(=O)c23)C1`, the inhibition was 63%.
